Blank lines part the entries; values can stand above or below the molecule they belong to.
Tests used:
Type in all cases: cell-based
[1] = molecular target: T1, ERβ (Homo sapiens, UniProt Q92731); assay: Reporter gene assay, ERRγ3 coexisted with ERβ in CV-1 cells
T1 construct: expressed in transfected cells; host or cells: CV-1 (African green monkey kidney)

[2] = molecular target: T2, GR (Homo sapiens, UniProt P04150); assay: Reporter gene assay, ERRγ3 coexisted with GR, pGRE-luc in CV-1 cells; conditions: 10^−5 M dexamethasone
T2 construct: expressed in transfected cells; host or cells: CV-1 (African green monkey kidney)
T2 sequence (P04150 1-777): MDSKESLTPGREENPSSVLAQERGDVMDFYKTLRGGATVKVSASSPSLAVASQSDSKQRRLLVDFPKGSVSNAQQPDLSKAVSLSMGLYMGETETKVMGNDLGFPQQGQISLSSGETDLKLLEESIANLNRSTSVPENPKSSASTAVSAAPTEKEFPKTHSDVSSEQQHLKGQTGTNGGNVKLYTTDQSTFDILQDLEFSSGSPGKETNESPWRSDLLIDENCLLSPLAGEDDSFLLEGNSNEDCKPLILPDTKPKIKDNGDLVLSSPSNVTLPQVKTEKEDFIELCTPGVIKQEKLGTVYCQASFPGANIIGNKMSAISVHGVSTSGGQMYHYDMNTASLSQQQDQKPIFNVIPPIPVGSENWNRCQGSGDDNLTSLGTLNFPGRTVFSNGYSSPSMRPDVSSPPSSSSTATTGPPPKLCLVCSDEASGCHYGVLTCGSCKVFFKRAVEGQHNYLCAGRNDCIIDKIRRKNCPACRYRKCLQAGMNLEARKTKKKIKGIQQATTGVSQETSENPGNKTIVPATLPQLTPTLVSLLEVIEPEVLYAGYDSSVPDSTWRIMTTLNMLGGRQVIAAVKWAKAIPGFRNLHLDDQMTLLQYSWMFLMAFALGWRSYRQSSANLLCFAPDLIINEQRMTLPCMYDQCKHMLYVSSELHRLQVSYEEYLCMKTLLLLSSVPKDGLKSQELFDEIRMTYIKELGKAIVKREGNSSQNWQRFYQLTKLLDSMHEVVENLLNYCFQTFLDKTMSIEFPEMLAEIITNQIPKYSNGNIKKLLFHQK
Method: Transfection was performed as follows: CV-1 cells were resuspended in DMEM supplemented with 10% fetal bovine serum, 2000 U/l of penicillin G, and 100 mg/l of streptomycin to a concentration of 2×10^5 cells/2.5 ml. This was then seeded to a 6-well plate at 2.5 ml per well, and incubated for 18-24 hours in a CO2 incubator at 37° C. and 5% CO2. 1 μg of each of the expression plasmids for the transcription factors, the luciferase reporter plasmid, and another luciferase reporter plasmid used for normalization of the measured values (pRL-TK), were dissolved in Opti-MEM (Gibco BRL), to a total of 150 μl. 7 μl of the transfection reagent LipofectAMINE 2000 (Gibco BRL) was diluted in 143 μl of Opti-MEM, and this was added to the mixture drop by drop while stirring. The mixture was incubated for 20 minutes. […] Luciferase activity was measured using the Dual-Luciferase™ Reporter Assay System (Promega). […] The protocol for measurement was as follows: 50 μl of Luciferase Assay Reagent II was added to each well, stirred for 0.3 seconds, and measured for one second. 50 μl of Stop&Glo™ Reagent was then added, stirred for 0.3 seconds, and measured for one second. The measured values for firefly luciferase activity were corrected by dividing by the value for the Renilla luciferase activity, the internal control. Average values and standard errors were calculated from triplicate samples. […]

[3] = molecular target: T3, TR (Homo sapiens, UniProt P10827); assay: Reporter gene assay, ERRγ3 coexisted with TR in CV-1 cells
T3 construct: expressed in transfected cells; host or cells: CV-1 (African green monkey kidney)
T3 sequence (P10827 1-410 isoform P10827-2): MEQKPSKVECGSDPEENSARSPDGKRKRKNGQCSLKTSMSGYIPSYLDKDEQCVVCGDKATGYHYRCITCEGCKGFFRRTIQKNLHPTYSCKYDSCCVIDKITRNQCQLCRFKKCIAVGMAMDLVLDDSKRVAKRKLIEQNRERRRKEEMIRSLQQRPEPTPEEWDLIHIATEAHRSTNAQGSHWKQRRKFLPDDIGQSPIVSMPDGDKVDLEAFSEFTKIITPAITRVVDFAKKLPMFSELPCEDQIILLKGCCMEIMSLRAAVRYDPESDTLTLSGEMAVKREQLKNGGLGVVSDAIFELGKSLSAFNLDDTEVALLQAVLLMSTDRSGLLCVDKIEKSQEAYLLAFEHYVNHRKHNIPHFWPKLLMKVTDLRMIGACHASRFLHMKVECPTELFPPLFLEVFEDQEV

T1 sequence (Q92731 whole entry): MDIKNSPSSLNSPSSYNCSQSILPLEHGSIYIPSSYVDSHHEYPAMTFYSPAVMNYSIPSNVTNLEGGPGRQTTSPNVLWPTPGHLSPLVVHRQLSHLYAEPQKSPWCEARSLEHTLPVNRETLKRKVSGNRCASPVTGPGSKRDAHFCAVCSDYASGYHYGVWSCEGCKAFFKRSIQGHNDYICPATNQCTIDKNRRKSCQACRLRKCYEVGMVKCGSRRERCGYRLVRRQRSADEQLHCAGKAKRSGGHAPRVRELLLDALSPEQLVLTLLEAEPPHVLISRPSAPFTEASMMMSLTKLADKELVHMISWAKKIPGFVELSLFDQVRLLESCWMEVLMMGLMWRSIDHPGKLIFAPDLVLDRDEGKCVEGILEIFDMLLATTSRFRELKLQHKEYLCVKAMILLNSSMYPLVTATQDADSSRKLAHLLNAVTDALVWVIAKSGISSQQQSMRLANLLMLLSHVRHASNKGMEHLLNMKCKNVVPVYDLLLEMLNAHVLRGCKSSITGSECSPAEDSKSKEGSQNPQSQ

effect of 4-hydroxytamoxifen on the enhancing function of ERRγ3 on ERβ ([1]; 10^−5 M (R)-estradiol present): no function-enhancing effect
effect of 4-hydroxytamoxifen on the inhibitory function of ERRγ3 on GR ([2]; 10^−5 M 4-hydroxytamoxifen, FIG. 25B): reduced ERRγ3's inhibitory function
effect of 4-hydroxytamoxifen on the enhancing function of ERRγ3 on TR ([3]; 10^−5 M thyroxine present): no function-enhancing effect
Molecule: 4-hydroxytamoxifen [reference compound]

function enhancement of the transcription-controlling activity of ERβ ([1]; ERRγ3 with ERβ, 10^−5 M (R)-estradiol, FIG. 17): 600-650%
function enhancement of the transcription-controlling activity of TR ([3]; ERRγ3 with TR, 10^−5 M thyroxine, FIG. 18): 128-229%
B1: ERRγ3: novel ERRγ isoform, nuclear receptor protein of 396 amino acids (SEQ ID NO: 2) lacking part of the DNA binding domain (protein, listed as Homo sapiens)
chain: MSNKDRHIDSSCSSFIKTEPSSPASLTDSVNHHSPGGSSDASGSYSSTMNGHQNGLDSPPLYPSAPILGGSGPVRKLYDDCSSTIVEDPQTKCEYMLNSMPKRLCLVCGDIASGYHYGVASCEACKAFFKRTIQGVRLDRVRGGRQKYKRRIDAENSPYLNPQLAQPAKKPYNKIVSHLLVAEPEKIYAMPDPTVPDSDIKALTTLCDLADRELVVIIGWAKHIPGFSTLSLADQMSLLQSAWMEILILGVVYRSLSFEDELVYADDYIMDEDQSKLAGLLDLNNAILQLVKKYKSMKLEKEEFVTLKAIALANSDSMHIEDVEAVQKLQDVLHEALQDYEAGQHMEDPRRAGKMLMTLPLLRQTSTKAVQHFYNIKLEGKVPMHKLFLEMLEAKV
effect of ERRγ3 on the transcriptional stimulation activity of GR ([2]; FIG. 25): inhibited GR's transcriptional stimulation activity
